Molecules are shown by their SMILES. Counter-ions that a name gives are not always drawn.

This assay addresses T1, recombinant guanylate cyclase reporter cell line (Rattus norvegicus, UniProt P19686+P20595).
T1 construct: expressed in transfected cells; host or cells: recombinant reporter cell line
T1 sequence (P19686 1-690): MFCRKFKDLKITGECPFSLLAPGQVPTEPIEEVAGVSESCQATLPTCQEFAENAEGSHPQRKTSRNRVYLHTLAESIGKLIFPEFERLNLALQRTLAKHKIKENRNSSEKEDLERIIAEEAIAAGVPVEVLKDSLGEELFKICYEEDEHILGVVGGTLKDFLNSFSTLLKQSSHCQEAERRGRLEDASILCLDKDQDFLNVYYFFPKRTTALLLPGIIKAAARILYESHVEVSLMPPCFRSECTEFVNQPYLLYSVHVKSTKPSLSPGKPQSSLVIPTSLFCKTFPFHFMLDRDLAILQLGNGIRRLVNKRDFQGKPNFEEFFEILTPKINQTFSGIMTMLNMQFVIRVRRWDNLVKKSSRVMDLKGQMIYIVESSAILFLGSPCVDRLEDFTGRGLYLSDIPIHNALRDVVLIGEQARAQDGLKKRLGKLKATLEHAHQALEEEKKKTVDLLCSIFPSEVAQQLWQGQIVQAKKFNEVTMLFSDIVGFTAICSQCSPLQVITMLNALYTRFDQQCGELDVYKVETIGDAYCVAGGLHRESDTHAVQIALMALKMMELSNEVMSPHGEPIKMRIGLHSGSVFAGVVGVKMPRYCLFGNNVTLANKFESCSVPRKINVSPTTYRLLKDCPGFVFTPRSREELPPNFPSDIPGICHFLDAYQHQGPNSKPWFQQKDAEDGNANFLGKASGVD
T1 sequence (P20595 1-619): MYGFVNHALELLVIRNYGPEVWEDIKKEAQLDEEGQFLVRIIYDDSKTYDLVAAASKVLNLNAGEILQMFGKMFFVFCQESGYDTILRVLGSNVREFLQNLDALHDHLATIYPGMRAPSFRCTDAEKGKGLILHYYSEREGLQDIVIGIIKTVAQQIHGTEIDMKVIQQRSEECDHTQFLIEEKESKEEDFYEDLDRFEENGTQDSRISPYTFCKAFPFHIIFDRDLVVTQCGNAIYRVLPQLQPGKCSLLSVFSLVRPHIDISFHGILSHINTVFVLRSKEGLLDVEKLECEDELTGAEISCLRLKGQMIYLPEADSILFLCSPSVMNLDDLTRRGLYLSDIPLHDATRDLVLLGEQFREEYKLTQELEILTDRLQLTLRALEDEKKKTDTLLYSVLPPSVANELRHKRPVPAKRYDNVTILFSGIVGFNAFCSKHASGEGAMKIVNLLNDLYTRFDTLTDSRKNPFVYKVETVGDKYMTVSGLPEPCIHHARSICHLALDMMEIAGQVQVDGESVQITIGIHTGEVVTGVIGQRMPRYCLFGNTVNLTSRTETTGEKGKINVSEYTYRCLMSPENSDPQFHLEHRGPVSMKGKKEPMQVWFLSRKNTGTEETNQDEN
As to the kind of experiment: Effect on a recombinant guanylate cyclase reporter cell line. In kind it is cell-based. The settings on record: MEC = minimum effective concentration; in some cases mean values for individual determinations. As to the method:
B-2. Effect on a Recombinant Guanylate Cyclase Reporter Cell Line
The cellular effect of the inventive compounds is determined using a recombinant guanylate cyclase reporter cell line, as described in F. Wunder et al., Anal. Biochem. 339, 104-112 (2005).
Representative MEC values (MEC=minimum effective concentration) for the inventive compounds are shown in the table below (in some cases as mean values for individual determinations): […]
As for `Cc1cc(OCc2c(F)cccc2F)c2nc(C)c(-c3cc(CC(C)(C)N)no3)n2c1` [Example 144, 1-(5-{8-[(2,6-Difluorobenzyl)oxy]-2,6-dimethylimidazo[1,2-a]pyridin-3-yl}-1,2-oxazol-3-yl)-2-methylpropan-2-amine], the MEC is 0.3 µM.
On to `CCn1cc(-c2c(C)nc3c(OCc4c(F)cccc4F)cccn23)cn1` [Example 49], for which the MEC turned out to be 0.3 µM.
With `C=Cc1ccc(-c2c(C)nc3c(OCc4c(F)cccc4F)cccn23)cc1` [Example 32, 8-[(2,6-difluorobenzyl)oxy]-2-methyl-3-(4-vinylphenyl)imidazo[1,2-a]pyridine], the MEC came out at 3.0 µM.
With `Cc1cc(OCc2c(F)cccc2F)c2nc(C)c(-c3cnn(CCOC(N)=O)c3)n2c1` [Example 97, 2-(4-{8-[(2,6-Difluorobenzyl)oxy]-2,6-dimethylimidazo[1,2-a]pyridin-3-yl}-1H-pyrazol-1-yl)ethyl carbamate] the figure was 0.3 µM.
As for `Cc1nc2c(OCc3c(F)cccc3F)cccn2c1-c1ccc(F)c(CN2CCOCC2)c1` [Example 44, 8-[(2,6-difluorobenzyl)oxy]-3-[4-fluoro-3-(morpholin-4-ylmethyl)phenyl]-2-methylimidazo[1,2-a]pyridine], the MEC came out at 3.0 µM.
Consider `Cc1cc(OCc2c(F)cccc2F)c2nc(C)c(-c3cnn(CCN4CCC(F)(F)CC4)c3)n2c1` [Example 92, 8-[(2,6-Difluorobenzyl)oxy]-3-{1-[2-(4,4-difluoropiperidin-1-yl)ethyl]-1H-pyrazol-4-yl}-2,6-dimethylimidazo[1,2-a]pyridine], for which the MEC came to 0.03 µM.
`Cc1cc(OCc2c(F)cccc2F)c2nc(C)c(-c3cnn(CC(C)(C)N)c3)n2c1` [Example 89, 1-(4-{8-[(2,6-Difluorobenzyl)oxy]-2,6-dimethylimidazo[1,2-a]pyridin-3-yl}-1H-pyrazol-1-yl)-2-methylpropan-2-amine]: the MEC is 0.03 µM.
With `CCOC(=O)c1cc(-c2c(C)nc3c(OCc4c(F)cccc4F)cc(C)cn23)on1` [Example 141, Ethyl 5-{8-[(2,6-difluorobenzyl)oxy]-2,6-dimethylimidazo[1,2-a]pyridin-3-yl}-1,2-oxazole-3-carboxylate] the figure was 1.0 µM; with `Cc1nc2c(OCc3c(F)cccc3F)cccn2c1-c1ccc2c(ccn2C)c1` [Example 36, 8-[(2,6-difluorobenzyl)oxy]-2-methyl-3-(1-methyl-1H-indol-5-yl)imidazo[1,2-a]pyridine], 3.0 µM; with `COC(=O)C(C)n1cc(-c2c(C)nc3c(OCc4c(F)cccc4F)cc(C)cn23)cn1` (stereo not drawn) [Example 104], 0.3 µM.
As for `Cc1nc2c(OCc3c(F)cccc3F)cccn2c1-c1ccc(F)cc1` [Example 16, 8-[(2,6-difluorobenzyl)oxy]-3-(4-fluorophenyl)-2-methylimidazo[1,2-a]pyridine], the MEC came out at 1.0 µM.
As for `Cc1cc(OCc2c(F)cccc2F)c2nc(C)c(-c3ncn(CC(C)(C)N)n3)n2c1` [Example 129, 1-(3-{8-[(2,6-Difluorobenzyl)oxy]-2,6-dimethylimidazo[1,2-a]pyridin-3-yl}-1H-1,2,4-triazol-1-yl)-2-methylpropan-2-amine], the MEC was found to be 1.0 µM.
Regarding `CCN(CC)Cc1ccc(-c2c(C)nc3c(OCc4c(F)cccc4F)cccn23)cc1F` [Example 43, N-(4-{8-[(2,6-difluorobenzyl)oxy]-2-methylimidazo[1,2-a]pyridin-3-yl}-2-fluorobenzyl)-N-ethylethanamine], the MEC stood at 3.0 µM.
For the compound `CCCCc1coc(-c2c(C)nc3c(OCc4c(F)cccc4F)cc(Cl)cn23)n1` [Example 61, 3-(4-Butyl-1,3-oxazol-2-yl)-6-chloro-8-[(2,6-difluorobenzyl)oxy]-2-methylimidazo[1,2-a]pyridine trifluoroacetate], the MEC was found to be 3.0 µM.
With `Cc1nc2c(OCc3c(F)cccc3F)cccn2c1-c1nc(N)n[nH]1` [Example 124, 5-{8-[(2,6-Difluorobenzyl)oxy]-2-methylimidazo[1,2-a]pyridin-3-yl}-1H-1,2,4-triazol-3-amine] the figure was 3.0 µM; with `Cc1cc(OCc2c(F)cccc2F)c2nc(C)c(-c3cnn(CC(=O)O)c3)n2c1` [Example 108, (4-{8-[(2,6-difluorobenzyl)oxy]-2,6-dimethylimidazo[1,2-a]pyridin-3-yl}-1H-pyrazol-1-yl)acetic acid], 0.3 µM.
Take `CC(=O)Nc1cccc(-c2c(C)nc3c(OCc4c(F)cccc4F)cccn23)c1` [Example 4, N-(3-{8-[(2,6-difluorobenzyl)oxy]-2-methylimidazo[1,2-a]pyridin-3-yl}phenyl)acetamide]: the MEC turned out to be 0.2 µM.
On to `Cc1nc2c(OCc3c(F)cccc3F)cccn2c1-c1cccc(CN2CCOCC2)c1` [Example 21, 8-[(2,6-difluorobenzyl)oxy]-2-methyl-3-[3-(morpholin-4-ylmethyl)phenyl]imidazo[1,2-a]pyridine], for which the MEC was determined as 1.0 µM.
The result for `Cc1cc(-c2c(C)nc3c(OCc4c(F)cccc4F)cccn23)cnc1Cl` [Example 12, 3-(6-chloro-5-methylpyridin-3-yl)-8-[(2,6-difluorobenzyl)oxy]-2-methylimidazo[1,2-a]pyridine] reads 0.1 µM; that for `Cc1cc(OCc2c(F)cccc2F)c2nc(C)c(-c3cnn(CCN4CCN(C)CC4)c3)n2c1` [Example 94, 8-[(2,6-Difluorobenzyl)oxy]-2,6-dimethyl-3-{1-[2-(4-methylpiperazin-1-yl)ethyl]-1H-pyrazol-4-yl}imidazo[1,2-a]pyridine], 0.3 µM; that for `Cc1nc2c(OCc3c(F)cccc3F)cccn2c1-c1cnn(-c2cccnc2)c1` [Example 121], 1.0 µM.
Consider `COc1ccc(-c2c(C)nc3c(OCc4c(F)cccc4F)cccn23)cc1` [Example 25, 8-[(2,6-difluorobenzyl)oxy]-3-(4-methoxyphenyl)-2-methylimidazo[1,2-a]pyridine], for which the MEC was 1.0 µM.
As to `Cc1cc(OCc2c(F)cccc2F)c2nc(C)c(-c3cncc(C(N)=O)c3)n2c1` [Example 77, 5-{8-[(2,6-Difluorobenzyl)oxy]-2,6-dimethylimidazo[1,2-a]pyridin-3-yl}nicotinamide], the MEC amounted to 0.1 µM.
With `COCc1nnc(-c2c(C)nc3c(OCC4CCCCC4)cccn23)o1` [Example 67], the MEC is 3.0 µM.
With `Cc1cc(OCc2c(F)cccc2F)c2nc(C)c(-c3nc(CC(C)(C)N)no3)n2c1.O=CO` [Example 132, 1-(5-{8-[(2,6-Difluorobenzyl)oxy]-2,6-dimethylimidazo[1,2-a]pyridin-3-yl}-1,2,4-oxadiazol-3-yl)-2-methylpropan-2-amine formate], the MEC is 0.3 µM.
As to `Cc1nc2c(OCc3c(F)cccc3F)cccn2c1-c1ccn[nH]1` [Example 47], the MEC came out at 0.3 µM.
`CCN(C)Cc1cccc(-c2c(C)nc3c(OCc4c(F)cccc4F)cccn23)c1` [Example 5, N-(3-{8-[(2,6-difluorobenzyl)oxy]-2-methylimidazo[1,2-a]pyridin-3-yl}benzyl)-N-methylethanamine]: the MEC amounted to 0.2 µM.
For `Cc1cc(OCc2c(F)ccc(F)c2F)c2nc(C)c(-c3cnn(CC(C)(C)N)c3)n2c1` [Example 87, 1-(4-{2,6-Dimethyl-8-[(2,3,6-trifluorobenzyl)oxy]imidazopyridin-3-yl}-1H-pyrazol-1-yl)-2-methylpropan-2-amine], the MEC was determined as 0.1 µM.
With `Cc1ccc(-c2c(C)nc3c(OCc4c(F)cccc4F)cccn23)cc1` [Example 30, 8-[(2,6-difluorobenzyl)oxy]-2-methyl-3-(4-methylphenyl)imidazo[1,2-a]pyridine] the figure was 3.0 µM; with `Cc1cc(OCc2c(F)cccc2F)c2nc(C)c(-c3cccnc3)n2c1` [Example 140, 8-[(2,6-Difluorobenzyl)oxy]-2,6-dimethyl-3-(pyridin-3-yl)imidazo[1,2-a]pyridine], 0.1 µM.

(Values after patent US9776997B2, “3-aryl-substituted imidazo[1,2-A]pyridines and their use” (Bayer Pharma Aktiengesellschaft, priority 2013, dated 2017).)
